Tests used:
[1] = system: rat brain (caudatoputamen nucleus); assay: Brain blood flow in rats by H2 clearance (Example 12); format: in vivo; conditions: rats breathing 21% O2; 100 or 1000 nmol/kg
Description: SNO-Hb(FeII)O2, having a SNO/Hb ratio of 2, was prepared (from HbA0) by reaction with S-nitrosothiol. Rats breathing 21% O2 were injected (time 0) with Hbs prepared from HbA0 as indicated in FIG. 10 (open circles, SNO-Hb (100 nmol/kg); filled circles, SNO-Hb (1000 nmol/kg); filled squares, unmodified Hb (1000 nmol/kg)). Three rats were used per experiment. Blood flow was measured in brain using the H2 clearance method; microelectrodes were placed in the brain stereotactically. […] NO group release is promoted by local tissue hypoxia.

[2] = system: substantia nigra, caudate putamen nucleus and parietal cortex of Sprague-Dawley rats; assay: O2-dependent local cerebral blood flow in rats (Example 25); format: in vivo, rat; conditions: 1 μmol/kg infused over 3 minutes
Description: Adult male Sprague-Dawley rats (290-350 g) were anesthetized with sodium pentobarbital (50 mg/kg IP), intubated and ventilated with a small animal respirator (Edco Scientific Inc., Chapel Hill, N.C.) at a rate and tidal volume to maintain normal values of PaCO2 (35-45 mm Hg; PaCO2=systemic arterial blood carbon dioxide tension). The femoral vein and artery were cannulated for infusion of drugs and for continuous monitoring of systemic blood pressure, respectively. Aliquots of arterial blood (200 μl) were drawn periodically to measure blood gas tensions and pH (Instrumentation Laboratory Co., model 1304 blood gas/pH analyzer). The blood was replaced intravenously with three volumes of normal saline. The inspired O2 concentration was varied using premixed gases balanced with nitrogen. The tissue PO2 was measured continuously with polarographic platinum microelectrodes (50 μm O.D. coated with hydrophobic gas permeable Nafion) implanted stereotaxically in both the right and left hippocampus (AP-3.4 mm, ML+2.2 mm), caudate putamen nucleus and substantia nigra (see coordinates below) (Young, W., Stroke, 11:552-564 (1980); Heiss, W. D. and Traupett, H., Stroke, 12:161-167 (1981); Dewhirst, M. W. et al., Cancer Res., 54:3333-3336 (1994); Kerger, H. et al., Am. J. Physiol., 268:H802-H810 (1995)). The PO2 electrodes were polarized to −0.65V against a distant Ag/AgCl reference located on the tail and the current flow was measured using a low-impedance nA-meter. Regional arterial PO2 was adjusted by changing the inspired O2 concentration and atmospheric pressure.
Polarographic hydrogen (H2)-sensitive microelectrodes were implanted stereotaxically in the substantia nigra (AP −5.3 mm, ML −2.4 mm to the bregma, depth 3.2 mm), caudate putamen nucleus (CPN) (AP +0.8 mm, ML −2.5 mm, depth 5.2 mm) and parietal cortex, for measurement of regional blood flow (Young, W., Stroke, 11:552-564 (1980); Heiss, W. D. and Traupett, H., Stroke, 12:161-167 (1981)). The microelectrodes were made from platinum wire and insulated with epoxy, with the exception of the tip (1 mm) which was coated with Nafion. For placement, the electrodes were mounted on a micromanipulator and the rat's head was immobilized in a Kopf stereotaxic frame. H2-sensitive electrodes were polarized to +400 mV against a distant reference electrode on the tail, and the polarographic current was measured using a low-impedance nA meter during and after the inhalation of hydrogen gas (2.5%) for 1 min. Both the hydrogen clearance curves and voltage for oxygen measurements were made using PC WINDAQ (software, DI-200 AC, Dataq Instruments, Inc., Akron, Ohio). Cerebral blood flow was calculated using the initial slope method (Young, W., Stroke, 11:552-564 (1980); Heiss, W. D. and Traupett, H., Stroke, 12:161-167 (1981)). Regional blood flow responses were monitored for 30 min. prior to and 30 min. following drug administration; hemoglobins were given at time 0.
The cerebrovascular effects of SNO-Hb were measured in adult male Sprague-Dawley rats using O2 and H2 (blood flow)-sensitive microelectrodes that were placed stereotaxically in several regions of the brain as for Example 24.

[3] = system: rabbit thoracic aortic rings, endothelium removed; assay: Oxygen-dependent vessel ring bioassay (Examples 22, 23); format: cell-based
rabbit aortic ring = assay: Vessel ring bioassay of SNO-Hb preparations (Examples 4, 13); format: cell-based; conditions: for vasoactivity in vascular ring bioassay: no added thiol (FIG. 4A)
Description: Details of the vessel ring bioassay have been published (Stamler, J. S., et al., Proc. Natl. Acad. Sci. USA 89:444-448 (1992)). SNO-Hb(FeII)O2 preparations were synthesized with 10-fold excess S-nitrosocysteine (CYSNO) over Hb(FeII)O2 protein (2% borate, 0.5 mM EDTA, ˜15 min incubation), after which desalting was performed across Sephadex G-25 columns. CYSNO was synthesized in 0.5 N HCl, 0.5 mM EDTA and then neutralized (1:1) in 1 M phosphate buffer containing 0.5 mM EDTA. […] The latter was synthesized by treatment of Hb(FeII)O2 with excess ferricyanide, followed by desalting across G-25 columns. SNO-Hb concentrations were verified spectroscopically and the S-nitrosothiol content was determined by the method of Saville (Stamler, J. S., et al., Proc. Natl. Acad. Sci USA 89:444-448 (1992)). The S—NO/tetramer stoichiometry for both SNO-Hb preparations was ˜2. Oxidation of the heme was undetectable by uv-spectrophotometric methods.
The aortic ring bioassay was performed as described in Example 4. The product of the reaction in which a ratio of 100:1 CYSNO/Hb tetramer was used, contains 2 SNOs as well as NO attached to the heme.

rat red blood cells = assay: S-nitrosation of intraerythrocytic Hb on incubation of red blood cells with RSNOs; format: cell-based; conditions: oxygenated rat red blood cells
Description: Incubation of rat erythrocytes with S-nitrosocysteine (equimolar to heme (5 mM); phosphate buffer pH 7.4, 25° C.) leads to rapid formation of intracellular SNO-Hb(FeII)O2. […] By 60 min, 3 of the 4 available SH groups of Hb were S-nitrosated (note that rat Hb contains 4 reactive SH groups). […] Spectrum A is that of SNO-Hb isolated from erythrocytes following G-25 chromatography. Treatment of A with dithionite results in reduction of the S—NO moiety, liberating free NO which is autocaptured by deoxy Hb, forming Hb(FeII)NO (note that dithionite simultaneously deoxygenates Hb) (spectrum C). […] The spectrum of Hb(FeII)NO containing 4 NO's per tetramer is shown for comparison (inset, spectrum B).
At shown intervals, red blood cells were pelleted rapidly by centrifugation, washed three times, lysed in deionized water at 4° C., and the cytosolic fraction subjected to rapid desalting across G-25 columns. Intracellular SNO-Hb was measured by the method of Saville (Gaston, B., et al., (1992); Stamler, J. S., et al., Proc. Natl. Acad. Sci. USA, 89:444-448 (1992)), and confirmed spectroscopically (inset of FIG. 3A) as described above.

Sprague-Dawley rat = assay: Mean arterial blood pressure in anesthetized rats after femoral vein bolus (Examples 5, 6); format: in vivo; conditions: 2-200 nmol/kg bolus
Source text: Rats were anesthetized by intraperitoneal injection of pentobarbital and the femoral arteries and veins accessed by local cut down. The artery was then cannulated and the blood pressure monitored continuously using a Viggo Spectramed pressure transducer attached to a Gould recorder. An IBM PC (DATA Q Codas) was used for data acquisition.

[4] = Decomposition and stability of SNO-Hb forms; format: physicochemical
Description: Hbs in PBS (0.5 mM EDTA, pH 7.4) were incubated in air (oxy) or in a tonometer previously evacuated of O2 (deoxy). SNO-Hb(FeII)O2 decomposition was determined by the method of Saville (Saville, B., Analyst 83:670-672 (1958)). Spontaneous decomposition of SNO-Hb(FeII) was followed spectrophotometrically by formation of Hb(FeII)NO. Transnitrosation reactions with glutathione were performed by addition of 100-fold excess glutathione over protein (50 μM), immediate processing of the reaction mixture under anaerobic conditions followed by rapid TCA precipitation, and analysis of RSNO in the supernatant. Rates of NO group transfer were too rapid to measure accurately by the standard methods used in this study.

SNO-Hb: S-nitrosohemoglobin, hemoglobin S-nitrosylated at thiol groups (cysβ93)
blood flow to the brain [1]: improves blood flow to the brain | local cerebral blood flow ([2]; 21% O2): improved blood flow in all three regions of the brain tested | local cerebral blood flow ([2]; 100% O2 + 3 ATA): tended to decrease cerebral flow to similar extents | local cerebral blood flow ([2]; 100% O2): significantly attenuated | effect on vessel tone ([3]; 1 μM, rings contracted with phenylephrine under hypoxic conditions (6-7 torr)): relaxations | effect of 10 μM glutathione on the response ([3]; 10 μM glutathione in bioassay chambers): potentiates the vasorelaxant response | effect on vessel tension ([3]; 95% O2 or 21% O2 (R-structure)): contract blood vessels | effect on vessel tension ([3]; <1% O2 (~6 torr), T-structure): does not

[N]=O [NO, nitric oxide, reference compound]
relaxant activity of free NO (rabbit aortic ring; in the presence of Hb(FeII)O2 or Hb(FeIII)): devoid of relaxant activity

N[C@@H](CCSN=O)C(=O)O [S-nitrosohomocysteine]
formation of intraerythrocytic SNO-Hb on treatment of red blood cells (rat red blood cells): formed

N[C@@H](CCC(=O)N[C@@H](CSN=O)C(=O)NCC(=O)O)C(=O)O [GSNO, S-nitrosoglutathione]
formation of intraerythrocytic SNO-Hb on treatment of red blood cells (rat red blood cells): not | local cerebral blood flow ([2]; 100% O2 + 3 ATA): increased brain perfusion | local cerebral blood flow ([2]; 100% O2): increased brain perfusion | vasorelaxant effects, dependence on PO2 ([3]; 95%, 21%, <1% O2 (FIG. 20D)): largely independent of PO2

Hb(FeII)O2: oxyhemoglobin, cell-free, not S-nitrosated [reference compound]
effect of added glutathione on the dose-response (rabbit aortic ring; glutathione 100 ∥M in bioassay chambers (FIG. 4B)): did not significantly influence the response | vasoactivity in vascular ring bioassay (rabbit aortic ring): Contractile effects | time for elevations in blood pressure to reverse (Sprague-Dawley rat): 10 to 15 min

deoxyHb: deoxyhemoglobin, not S-nitrosated
effect on vessel tension ([3]; <1% O2 (~6 torr), T-structure): powerful contractile agent

SNO-deoxyHb: S-nitroso-deoxyhemoglobin synthesized in an anaerobic environment
stability of the isolated preparation ([4]; as synthesized in Example 27): highly unstable | rates of RSNO decomposition (and transfer) ([4]; deoxy conformation versus oxy state, PBS pH 7.4): much faster | effect on vessel tension ([3]; <1% O2 (~6 torr), T-structure): modest effect on baseline tone

N[C@@H](CSN=O)C(=O)O [S-nitrosocysteine]
formation of intraerythrocytic SNO-Hb on treatment of red blood cells (rat red blood cells): very rapid formation of intracellular SNO-Hb(FeII)O2

N[C@@H](CSN=O)C(=O)NCC(=O)O [S-nitrosocysteinylglycine]
formation of intraerythrocytic SNO-Hb on treatment of red blood cells (rat red blood cells): formed

Hb(FeIII): methemoglobin, heme iron oxidized to FeIII [reference compound]
vasoactivity in vascular ring bioassay (rabbit aortic ring): contractile properties

100:1 CYSNO/Hb product: Hb treated with 100:1 S-nitrosocysteine; contains 2 SNOs as well as NO attached to the heme (polynitrosated)
potency in aortic ring bioassay (rabbit aortic ring; Hb treated with S-nitrosocysteine 100:1 (FIG. 11)): much greater than that of SNO-Hb(FeIII)
